Measured values taken from US7880007B2, “Bicyclic substituted phenyl piperidine modulators of muscarinic receptors” (Vertex Pharmaceuticals Incorporated, priority 2004, dated 2011).

How the values were obtained:
Type in all cases: cell-based
M1 muscarinic receptor = molecular target: T1, M1 muscarinic receptor (Homo sapiens, UniProt P11229); experiment: Functional mobilization of intracellular calcium (FLIPR), M1-CHO cells; settings: for Emax: 100% efficacy = maximum response obtained with the Carbachol control; for M1 Activity: M1-CHO cells, calcium mobilization (FLIPR)
T1 construct: expressed in transfected cells; host or cells: CHO (M1-CHO)
T1 sequence (P11229 1-460): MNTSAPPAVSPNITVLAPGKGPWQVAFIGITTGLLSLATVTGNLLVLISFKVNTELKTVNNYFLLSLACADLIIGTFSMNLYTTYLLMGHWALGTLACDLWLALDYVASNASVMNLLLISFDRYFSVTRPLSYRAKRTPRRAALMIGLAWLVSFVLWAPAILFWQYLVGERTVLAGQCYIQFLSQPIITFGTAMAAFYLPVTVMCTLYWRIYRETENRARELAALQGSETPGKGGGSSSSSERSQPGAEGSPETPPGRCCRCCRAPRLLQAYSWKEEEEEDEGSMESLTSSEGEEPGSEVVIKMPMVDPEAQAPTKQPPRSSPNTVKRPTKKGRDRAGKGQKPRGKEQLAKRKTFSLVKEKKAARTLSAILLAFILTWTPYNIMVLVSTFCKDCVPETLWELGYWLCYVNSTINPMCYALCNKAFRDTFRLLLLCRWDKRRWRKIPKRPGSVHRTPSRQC
Method in brief: (§1)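 Calcium mobilisation read by FLIPR over 60 s (ex 488/em 540 nm) in recombinant muscarinic CHO lines loaded with calcium dye plus 1 mM probenecid. Compounds tested as agonists alone, or as inhibitors against EC80 carbachol after 15 min pre-incubation or co-addition; 0.5% DMSO; efficacy scaled to carbachol maximal response.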

M2 muscarinic receptor = molecular target: T2, M2 muscarinic receptor (Homo sapiens, UniProt P08172); experiment: Functional mobilization of intracellular calcium (FLIPR), M2-CHO cells; settings: for Emax: 100% efficacy = maximum response obtained with the Carbachol control; for M2 Activity: M2-CHO cells, calcium mobilization (FLIPR)
T2 construct: expressed in transfected cells; host or cells: CHO (M2-CHO)
T2 sequence (P08172 1-466): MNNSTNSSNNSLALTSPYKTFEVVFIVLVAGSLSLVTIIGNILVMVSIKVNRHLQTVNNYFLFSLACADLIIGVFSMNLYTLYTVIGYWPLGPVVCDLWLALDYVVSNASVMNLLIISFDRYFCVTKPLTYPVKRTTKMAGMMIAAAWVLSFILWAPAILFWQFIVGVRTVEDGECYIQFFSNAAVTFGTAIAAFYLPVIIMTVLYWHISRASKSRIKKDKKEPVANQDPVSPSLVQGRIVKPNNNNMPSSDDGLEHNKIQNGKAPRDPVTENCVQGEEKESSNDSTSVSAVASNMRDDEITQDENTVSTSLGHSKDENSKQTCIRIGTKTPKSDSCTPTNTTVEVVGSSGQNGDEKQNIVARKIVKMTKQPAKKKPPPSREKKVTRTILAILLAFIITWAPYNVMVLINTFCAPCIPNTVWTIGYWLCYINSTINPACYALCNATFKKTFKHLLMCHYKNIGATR
Method in brief: as §1

M3 muscarinic receptor = molecular target: T3, M3 muscarinic receptor (Homo sapiens, UniProt P20309); experiment: Functional mobilization of intracellular calcium (FLIPR), M3-CHO cells; settings: for Emax: 100% efficacy = maximum response obtained with the Carbachol control; for M3 Activity: M3-CHO cells, calcium mobilization (FLIPR)
T3 construct: expressed in transfected cells; host or cells: CHO (M3-CHO)
T3 sequence (P20309 whole entry): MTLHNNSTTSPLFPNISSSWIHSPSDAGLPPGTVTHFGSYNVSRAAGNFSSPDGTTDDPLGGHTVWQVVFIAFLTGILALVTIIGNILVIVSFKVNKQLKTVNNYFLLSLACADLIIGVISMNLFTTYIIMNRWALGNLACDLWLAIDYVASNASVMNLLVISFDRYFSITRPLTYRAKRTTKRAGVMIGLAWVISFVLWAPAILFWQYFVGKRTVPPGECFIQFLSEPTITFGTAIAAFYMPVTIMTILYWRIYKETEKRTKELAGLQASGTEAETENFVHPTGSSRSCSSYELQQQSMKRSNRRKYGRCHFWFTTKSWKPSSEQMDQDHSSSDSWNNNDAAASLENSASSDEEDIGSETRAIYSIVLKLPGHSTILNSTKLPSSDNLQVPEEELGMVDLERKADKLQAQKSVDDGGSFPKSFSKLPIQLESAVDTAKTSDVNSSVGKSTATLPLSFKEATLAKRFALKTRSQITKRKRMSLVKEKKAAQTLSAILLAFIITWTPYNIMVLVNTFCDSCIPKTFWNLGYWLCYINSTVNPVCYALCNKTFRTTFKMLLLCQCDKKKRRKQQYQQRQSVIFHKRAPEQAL
Method in brief: as §1

M4 muscarinic receptor = molecular target: T4, M4 muscarinic receptor (Homo sapiens, UniProt P08173); experiment: Functional mobilization of intracellular calcium (FLIPR), M4-CHO cells; settings: for Emax: 100% efficacy = maximum response obtained with the Carbachol control; for M4 Activity: M4-CHO cells, calcium mobilization (FLIPR)
T4 construct: expressed in transfected cells; host or cells: CHO (M4-CHO)
T4 sequence (P08173 1-479): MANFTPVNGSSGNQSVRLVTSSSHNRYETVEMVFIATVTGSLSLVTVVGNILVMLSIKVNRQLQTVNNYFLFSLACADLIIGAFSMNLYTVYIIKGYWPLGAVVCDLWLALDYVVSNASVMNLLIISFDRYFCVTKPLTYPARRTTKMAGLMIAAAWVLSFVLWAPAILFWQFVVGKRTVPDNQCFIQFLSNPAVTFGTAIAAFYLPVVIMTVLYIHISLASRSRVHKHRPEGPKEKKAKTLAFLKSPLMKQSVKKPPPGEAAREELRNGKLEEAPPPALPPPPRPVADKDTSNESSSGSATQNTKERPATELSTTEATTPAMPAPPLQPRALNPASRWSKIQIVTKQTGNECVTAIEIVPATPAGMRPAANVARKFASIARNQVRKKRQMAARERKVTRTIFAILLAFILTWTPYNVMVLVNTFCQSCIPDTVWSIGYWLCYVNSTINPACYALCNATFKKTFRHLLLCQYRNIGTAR
Method in brief: as §1

| Emax (M1 muscarinic receptor) | Emax (M2 muscarinic receptor) | Emax (M3 muscarinic receptor) | Emax (M4 muscarinic receptor) | Structure (SMILES) | M1 Activity (M1 muscarinic receptor) | M2 Activity (M2 muscarinic receptor) | M3 Activity (M3 muscarinic receptor) | M4 Activity (M4 muscarinic receptor) |
| --- | --- | --- | --- | --- | --- | --- | --- | --- |
| < 25% | < 25% | < 25% | < 25% | COc1ccc(-c2cccnc2)cc1C1CCN([C@H]2C[C@H]3CC[C@H]2C3)CC1 [Compound 148] | + (activity was measured to be greater than 5.0 μM) | + (activity was measured to be greater than 5.0 μM) | + (activity was measured to be greater than 5.0 μM) | + (activity was measured to be greater than 5.0 μM) |
| 25 to 100% | 25 to 100% | < 25% | 25 to 100% | COc1ccc(Cl)cc1C1(F)CCN(C2CCCCCC2)CC1 [Compound 161] | + (activity was measured to be greater than 5.0 μM) | + (activity was measured to be greater than 5.0 μM) | + (activity was measured to be greater than 5.0 μM) | + (activity was measured to be greater than 5.0 μM) |
| 25 to 100% | < 25% | < 25% | 25 to 100% | COc1ccc(F)cc1C1CCN(CC2CCOCC2)CC1 [Compound 163] | + (activity was measured to be greater than 5.0 μM) | + (activity was measured to be greater than 5.0 μM) | + (activity was measured to be greater than 5.0 μM) | +++ (activity was measured to be less than 1.0 μM) |
| 25 to 100% | < 25% | < 25% | 25 to 100% | COc1ccc(F)cc1C1CCN(C[C@@H]2C[C@H]3C=C[C@H]2C3)CC1 [Compound 167] | ++ (activity was measured to be from 1.0 μM to 5.0 μM) | + (activity was measured to be greater than 5.0 μM) | + (activity was measured to be greater than 5.0 μM) | +++ (activity was measured to be less than 1.0 μM) |
| < 25% | < 25% | < 25% | 25 to 100% | COc1ccc(-c2ccccc2)cc1C1CCN([C@H]2C[C@H]3CC[C@H]2C3)CC1 [Compound 168] | + (activity was measured to be greater than 5.0 μM) | + (activity was measured to be greater than 5.0 μM) | + (activity was measured to be greater than 5.0 μM) | + (activity was measured to be greater than 5.0 μM) |

The next lines start with the compound.

| Structure (SMILES) | Emax (M1 muscarinic receptor) | Emax (M2 muscarinic receptor) | Emax (M3 muscarinic receptor) | Emax (M4 muscarinic receptor) | M1 Activity (M1 muscarinic receptor) | M2 Activity (M2 muscarinic receptor) | M3 Activity (M3 muscarinic receptor) | M4 Activity (M4 muscarinic receptor) |
| --- | --- | --- | --- | --- | --- | --- | --- | --- |
| Cc1c(C2CCN(C3C[C@H]4CC[C@H]3C4)CC2)cccc1C(F)(F)F (stereo partly drawn) [Compound 149] | 25 to 100% | < 25% | < 25% | 25 to 100% | + (activity was measured to be greater than 5.0 μM) | + (activity was measured to be greater than 5.0 μM) | + (activity was measured to be greater than 5.0 μM) | + (activity was measured to be greater than 5.0 μM) |
| COc1ccc(F)cc1C1(OC)CCN(CC2CCOCC2)CC1 [Compound 150] | 25 to 100% | < 25% | < 25% | 25 to 100% | + (activity was measured to be greater than 5.0 μM) | + (activity was measured to be greater than 5.0 μM) | + (activity was measured to be greater than 5.0 μM) | + (activity was measured to be greater than 5.0 μM) |
| COc1ccccc1C1CCN(C2CCC(C(C)(C)C)CC2)CC1 (stereo not drawn) [Compound 152] | < 25% | < 25% | < 25% | < 25% | + (activity was measured to be greater than 5.0 μM) | + (activity was measured to be greater than 5.0 μM) | + (activity was measured to be greater than 5.0 μM) | + (activity was measured to be greater than 5.0 μM) |
| COc1ccccc1[C@@H]1CCN([C@@H]2C[C@H]3CC[C@H]2C3)C[C@H]1O [Compound 154] | < 25% | < 25% | < 25% | 25 to 100% | + (activity was measured to be greater than 5.0 μM) | + (activity was measured to be greater than 5.0 μM) | + (activity was measured to be greater than 5.0 μM) | + (activity was measured to be greater than 5.0 μM) |
| COc1ccccc1C1CCN(C2CCC(C(C)C)CC2)CC1 (stereo not drawn) [Compound 155] | < 25% | < 25% | < 25% | < 25% | + (activity was measured to be greater than 5.0 μM) | + (activity was measured to be greater than 5.0 μM) | + (activity was measured to be greater than 5.0 μM) | + (activity was measured to be greater than 5.0 μM) |
| COc1ccccc1C1CCN(C2CCC(C)CC2)CC1 (stereo not drawn) [Compound 158] | 25 to 100% | < 25% | < 25% | 25 to 100% | + (activity was measured to be greater than 5.0 μM) | + (activity was measured to be greater than 5.0 μM) | + (activity was measured to be greater than 5.0 μM) | +++ (activity was measured to be less than 1.0 μM) |
| COc1ccc(F)cc1C1(OC)CCN(C[C@@H]2C[C@H]3C=C[C@H]2C3)CC1 [Compound 160] | 25 to 100% | < 25% | < 25% | 25 to 100% | + (activity was measured to be greater than 5.0 μM) | + (activity was measured to be greater than 5.0 μM) | + (activity was measured to be greater than 5.0 μM) | +++ (activity was measured to be less than 1.0 μM) |
| COc1c(F)cc(F)cc1C1CCN([C@H]2C[C@H]3CC[C@H]2C3)CC1 [Compound 165] | 25 to 100% | < 25% | < 25% | 25 to 100% | + (activity was measured to be greater than 5.0 μM) | + (activity was measured to be greater than 5.0 μM) | + (activity was measured to be greater than 5.0 μM) | ++ (activity was measured to be from 1.0 μM to 5.0 μM) |
| COc1ccccc1C1CCN(C2CC3CCC(C3)C2)CC1 (stereo not drawn) [Compound 169] | 25 to 100% | < 25% | < 25% | 25 to 100% | ++ (activity was measured to be from 1.0 μM to 5.0 μM) | + (activity was measured to be greater than 5.0 μM) | + (activity was measured to be greater than 5.0 μM) | +++ (activity was measured to be less than 1.0 μM) |
| O=C(COc1ccccc1C1CCN([C@H]2C[C@H]3CC[C@H]2C3)CC1)c1ccccc1Cl [Compound 170] | < 25% | < 25% | < 25% | 25 to 100% | + (activity was measured to be greater than 5.0 μM) | + (activity was measured to be greater than 5.0 μM) | + (activity was measured to be greater than 5.0 μM) | +++ (activity was measured to be less than 1.0 μM) |
